Literature values as cited in patent US20070298029A1, “Treatment of Neurodegenerative Diseases by the Use of Degs Inhibitors” (priority 2004, published 2007).

Target: T1, dihydroceramide desaturase (Rattus norvegicus, UniProt Q5XIF5)
T1 sequence (Q5XIF5 1-323): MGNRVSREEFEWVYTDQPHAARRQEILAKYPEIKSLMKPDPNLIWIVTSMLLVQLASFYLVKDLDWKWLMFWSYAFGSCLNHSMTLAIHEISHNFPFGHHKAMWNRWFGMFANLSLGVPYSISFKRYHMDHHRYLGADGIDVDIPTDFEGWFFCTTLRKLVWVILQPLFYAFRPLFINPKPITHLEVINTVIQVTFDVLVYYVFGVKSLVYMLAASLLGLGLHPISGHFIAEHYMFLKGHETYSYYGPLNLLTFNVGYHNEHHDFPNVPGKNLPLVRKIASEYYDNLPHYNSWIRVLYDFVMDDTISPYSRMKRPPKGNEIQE
Conditions: competitive inhibitor

For `CCCCCCCCCCCCCC1=C([C@H](O)[C@@H](CO)NC(=O)CCCCCCC)C1` [GT11, N-[(1R,2S)-2-hydroxy-1-hydroxymethyl-2-(2-tridecyl-1-cyclopropenyl)ethyl]octanamide], the Ki is given as 6 µM.
